Results published in paper PMC5920098, “Identification of the allosteric P2X7 receptor antagonist [^11C]SMW139 as a PET tracer of microglial activation” (Scientific Reports, 2018).
“Also recorded” adds a separate entry of the source.

Tests used:
[1] = molecular target: T1, human P2X7 receptor (hP2X7R) (Homo sapiens, UniProt Q99572); experiment: In vitro autoradiography on rat brain cryosections locally overexpressing hP2X7R; details: co-incubation with blocker 10 µM, tracer 28 nM, n = 2
T1 sequence (Q99572 1-595): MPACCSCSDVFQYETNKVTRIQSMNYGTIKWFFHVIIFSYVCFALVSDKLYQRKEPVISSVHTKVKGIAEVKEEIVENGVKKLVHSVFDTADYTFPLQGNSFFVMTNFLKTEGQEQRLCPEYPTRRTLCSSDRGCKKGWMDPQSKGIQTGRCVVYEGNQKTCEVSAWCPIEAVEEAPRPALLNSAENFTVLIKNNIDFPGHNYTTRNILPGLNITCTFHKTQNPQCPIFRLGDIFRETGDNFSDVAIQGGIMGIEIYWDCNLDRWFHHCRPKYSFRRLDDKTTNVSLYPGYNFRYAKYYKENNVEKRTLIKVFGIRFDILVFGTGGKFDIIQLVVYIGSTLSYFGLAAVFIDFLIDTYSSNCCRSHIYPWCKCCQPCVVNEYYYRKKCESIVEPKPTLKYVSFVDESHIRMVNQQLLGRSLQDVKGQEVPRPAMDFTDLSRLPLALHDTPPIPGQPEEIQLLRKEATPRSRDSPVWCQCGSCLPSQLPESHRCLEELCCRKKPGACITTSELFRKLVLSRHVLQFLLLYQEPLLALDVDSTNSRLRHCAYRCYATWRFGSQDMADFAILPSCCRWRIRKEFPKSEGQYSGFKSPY
Protocol: Snap frozen brain tissue was cut on a cryostat into 20 μm sections.
Stereotactic injection of viral vector
Female Wistar rats (n=7) were anaesthetised by intraperitoneal (i.p.)
injection of ketamine (75 mg·kg-1); Ketalar, Pfizer, Brussels, Belgium) and medetomidin (1 mg·kg-1;
Domitor, Pfizer) and positioned in a stereotactic head frame (Stoelting, Wood Dale, IL, USA). Right and
left striatum were injected with 4 µL of the hP2X7R vector (rAAV_3flag-hP2X7R) and of the control
vector (rAAV_3flag-eGFP), respectively, at a rate of 0.25 µL·min-1, using a 30-gauge needle connected
to a 10 µL Hamilton syringe. Coordinates used for striatal injection of the hP2X7R vector were:
anteroposterior 0 cm, lateral -0.28 cm and dorsoventral -0.64 cm relative to bregma. Coordinates
used for striatal injection of the eGFP vector were: anteroposterior 0 cm, lateral +0.28 cm and
dorsoventral -0.64 cm relative to bregma. After injection, the needle was kept in place for another 5
minutes before removing it slowly. To reverse the anaesthesia, the rats were injected intraperitoneally
with 0.5 mg·kg-1 atipamezol (Antisedan, Orion Pharma, Newburry, Berkshire, UK).
Rats were sacrificed for in
vitro autoradiography at 3 (n=2) and 12 (n=5) weeks after vector injection.
Snap frozen brains of female Wistar rats (rAAV_3flag-hP2X7R in right striatum; rAAV_3flag-eGFP in left
striatum; sacrificed 3 weeks (n = 2) or 12 weeks (n = 5) after vector injection) were cut on a Leica
CM3050 S cryostat (Leica Biosystems, Nussloch, Germany) at -19 °C in transversal sections of 20 µm,
thaw-mounted on SuperFrostTM Plus (Thermo Fisher Scientific, Waltham, MA, USA) object glasses,
dried overnight on silica at 4 °C and then stored at -20 °C until use.
Upon use, sections were thawed to room temperature for an hour
before washing the sections in 5 mM Tris-HCl buffer (pH 7.4) at room temperature (3x 5 min). Sections
were dried in a cold stream of air before incubation (30 min) with 5 mM Tris-HCl buffer (pH 7.4)
concentration. After incubation, sections were washed (3x 1.5 min) in ice-cold 5 mM Tris-HCl buffer
(pH 7.4) followed by a dip in ice-cold demineralised water. Sections were dried in a stream of air and
then exposed to a storage phosphor screen (BAS-IP SR 2040 E, GE Healthcare Europe GmbH,
Eindhoven, the Netherlands) and the screen was read out on a Typhoon FLA 7000 phosphor imager
(GE Healthcare Europe GmbH, Eindhoven, the Netherlands).
quantified using ImageQuantTL Analysis Toolbox (version 8.1, GE Healthcare). In case of the rat brain
sections, regions of interest (ROIs) were defined around the striatum. […] Results are expressed as mean intensity, or as
percentage of tracer binding, relative to total tracer binding in the contralateral striatum. Experiments
with rAAV_3flag-hP2X7R injected rat brains were performed as a duplicate of quadruplicates.
Statistical analysis of quantitative autoradiography data (unpaired t test, two-tailed) was performed

[2] = Extended single microdose toxicity study in Wistar rats; format: in vivo
Protocol: A single microdose toxicity study for P2X7R antagonist SMW139 was performed according to EMEA guideline EMA/CPMP/ICH/286/1995 (December 2009) in healthy Wistar rats (male and female) at a dose of 0.12 mg·kg^−1. Rats were administered SMW139 or vehicle and parameters assessed post-dose were clinical signs and mortality, changes in body weight, food consumption, terminal haematology, coagulation and clinical chemistry parameters, gross pathology and organ weights. Further details are described in the Supplementary Information. […]
Extended single microdose toxicity study
A single microdose toxicity study according to EMEA guideline EMA/CPMP/ICH/286/1995 (December 2009) was performed in healthy Wistar rats at a 1000 times higher dose than the maximal dose […]
minimum specific activity of 18.5 GBq·µmol-1). Animals were allowed to acclimatise for 10 days, group-housed and in an enriched environment with food and water available ad libitum, and with a 12-hour light-dark cycle in a temperature controlled room. Post-dosing, animals were single-housed, but with the ability to communicate. SMW139 was formulated in 6.7% EtOH in acetate/citrate buffer (citric acid monohydrate (8 mg·mL-1), sodium citrate dehydrate (16 mg·mL-1) and sodium acetate trihydrate (7 mg ·mL-1); pH 5.2) with 2.5% Tween-80. Male and female Wistar rats (244-355 g; Charles River, Tranent, Edinburgh, United Kingdom) were injected intravenously via the tail vein under light isoflurane anaesthetics with formulated SMW139 (1 mL·kg-1, corresponding to a single dose of 0.12 mg·kg-1; female n = 10; male n = 10), or vehicle only (1 mL·kg-1; female n = 10; male n = 10) and animals were sacrificed 24 hours (SMW139; female n = 5; male n = 5; vehicle; female n = 5; male n = 5) or 14 days (SMW139; female n = 5; male n = 5; vehicle; female n = 5; male n = 5) post-dose by exsanguination

[3] = LogDoct,7.4 by shake-flask method (1-octanol / 0.2 M phosphate buffer pH 7.4); format: physicochemical; details: mean ± SD, read-out: LogDoct,7.4 (n = 3)
Protocol: The LogDoct,7.4 of analogues [^11C]1–3 and [^11C]SMW139 ([^11C]4) was determined using the shake-flask method (partitioning between 1-octanol and 0.2 M phosphate buffer (pH 7.4)). Determined LogDoct,7.4 values (Table 1) show the same trend as LogD values reported by Wilkinson et al.[10].
LogDoct,7.4 of [^11C]1–3 and [^11C]SMW139 was determined by the shake-flask method as described in the Supplementary Information.
Analytical HPLC chromatogram of [11C]SMW139 formulation (Platinum C18, MeCN/H2O/TFA 45:55:0.1, 1 […]
Determination of LogDoct,7.4
The distribution of radiolabelled compound between 1-octanol and 0.2 M phosphate buffer (pH = 7.4) was measured at room temperature. Briefly, 1 mL of a 20 MBq·mL-1 solution of radiolabelled compound in 0.2 M phosphate buffer (pH = 7.4) was mixed with 1 mL of 1-octanol for 1 min using a vortex mixer. After a settling period of 30 min, three samples of 100 μL were taken from both layers.
All samples were counted for radioactivity in a Wallac Universal Gammacounter 1282 (PerkinElmer, Waltham, MA, USA). The LogDoct,7.4 value was calculated according to LogDoct,7.4 = 10Log(Aoct/Abuffer), where Aoct and Abuffer represent average radioactivity counts of the three 1-octanol and the three […]
(1 picture or pasted object on this page, not shown here)

[4] = Ex vivo metabolite analysis (plasma and brain) in healthy male Wistar rats; design: species or system rat
Protocol: In vivo stability of analogues [^11C]1–3 and [^11C]SMW139 was assessed in healthy male Wistar rats at 15 and 45 minutes after injection of 30–40 MBq of formulated tracer. […] Results obtained in plasma correspond with previously reported stability results in rat liver microsomes. A higher level of intact tracer was found in brain (Table 3) for [^11C]1 and [^11C]SMW139 compared with [^11C]2 and [^11C]3. Despite optimisation of the extraction method, the percentage of total radioactivity that could be extracted from brain homogenates was not optimal for all four compounds (59 ± 6% for [^11C]1; 58 ± 7% for [^11C]2; 61 ± 4% for [^11C]3; 62 ± 3% for [^11C]SMW139). Therefore, based on its highest stability in plasma in vivo, [^11C]SMW139 was selected for further in vivo studies. As imaging studies were performed in female rats, plasma metabolites were also determined in two female rats, and no differences were found between plasma metabolism of [^11C]SMW139 in male and female rats (Table S1; Supplementary Information).
For each of the carbon-11 labelled benzamide analogues [^11C]1–3 and [^11C]SMW139, a biodistribution study and metabolite analysis in healthy male Wistar rats was performed, as described in detail in the Supplementary Information. Briefly, tracer distribution in blood, brain, and peripheral organs was measured at 5, 15, 30 and 45 min after intravenous injection of 13–23 MBq of formulated tracer. Metabolite analysis was performed at 15 and 45 min after intravenous injection of 30–40 MBq of formulated tracer in both blood plasma and brain. […]
Ex vivo metabolite analysis
Healthy male and female Wistar rats (254-440 g) were injected with 30-40 MBq (at start of experiment) of formulated tracer in the tail vein under isoflurane anaesthesia. Rats were sacrificed at 15 and 45 min (n = 3 per time point). Blood samples were obtained and the brain was excised. Blood samples were collected in heparin tubes (BD Vacutainer NH 119 I.U., 7 mL, BD Vacutainer Systems, Plymouth, UK) and centrifuged at 4,000 rpm for 5 min at 4 °C (Hettich Universal 32, Andreas Hettich GmbH & Co.KG, Tuttlingen, Germany). Plasma supernatant was separated from blood cells and loaded onto a tC18 Sep-Pak (Waters, Milford, MA, USA), followed by washing with 3 mL of water to obtain the polar fraction. The non-polar fraction was then eluted with 2 mL of MeOH and 1 mL of water and further analysed by HPLC. The brain was put in a falcon tube containing 4 mL MeCN/H2O (50:50 v/v) and homogenised with a disperser (IKA T18 B Ultra-Turrax, IKA®-Werke GmbH & Co.KG, Staufen, Germany) before centrifugation (5 min, 4,000 rpm, 20 °C, Hettich Universal 32). Supernatant was separated from brain precipitate and analysed by HPLC. Analytical HPLC was performed with Dionex (Sunnyvale, CA, USA) UltiMate 3000 HPLC equipment with Chromeleon software (version 6.8) on a Gemini C18 5-µm (10 x 250 mm) column (Phenomenex, Torrance, CA, USA) with gradient and a mixture of MeCN (A) and 0.1% DIPA in water (B) as eluent according to the following scheme: 0 min, […]
0.25 mL·min-1. All separate fractions were counted for radioactivity in a Wizard Gammacounter 1470 or 2480 (Wallac/PerkinElmer, Waltham, MA, USA).

[5] = rat plasma, 15 min p.i., male Wistar rats
[6] = rat plasma, 45 min p.i., male Wistar rats

Row | SMILES | Block of [^11C]SMW139 binding in rAAV_3flag-hP2X7R striatum [1] [%] | Food consumption ([2]; single i.v. dose 0.12 mg·kg^−1) | Haematology, coagulation and clinical chemistry parameters ([2]; single i.v. dose 0.12 mg·kg^−1) | Necropsy findings ([2]; single i.v. dose 0.12 mg·kg^−1) | Organ weights ([2]; single i.v. dose 0.12 mg·kg^−1) | Toxic / clinical effects ([2]; single i.v. dose 0.12 mg·kg^−1, male and female rats) | Body weight curves vs vehicle ([2]; single i.v. dose 0.12 mg·kg^−1, p ≥ 0.05) | logD [3] | Intact tracer (%) ([4]; rat brain, 15 min p.i.) | Intact tracer (%) ([4]; rat brain, 45 min p.i.) | Intact tracer (%) [4, 5] [%] | Intact tracer (%) [4, 6] [%]
1 | COc1ccc(CC(=O)NC(NC(=NC#N)Nc2cccc3ncccc23)C(C)(C)C)cc1OC (stereo not shown) [A-740003, N-(1-{[(Cyanoimino)(5-quinolinylamino)methyl]amino}-2,2-dimethylpropyl)-2-(3,4-dimethoxyphenyl)acetamide, reference compound] | 79 ± 10 | – | – | – | – | – | – | – | – | – | – | –
2 | COc1ccc(Cl)c(C(=O)NCC23CC4(F)CC(F)(CC(F)(C4)C2)C3)c1 [SMW139] | – | stable in all groups | No treatment-related changes | no abnormalities suggesting a toxic effect | No significant differences in organ weights | no abnormalities, complications or toxic clinical effects were observed; also recorded: no adverse or toxic effects; also recorded: no toxic effects | did not differ between vehicle injected animals and animals injected with SMW139 | – | – | – | – | –
3 | [11CH3]Oc1ccc(Cl)c(C(=O)NCC23CC4CC(F)(CC(F)(C4)C2)C3)c1 [[^11C]3] | – | – | – | – | – | – | – | 2.71 ± 0.01 | 62 ± 2 | 32 ± 2 | 35 ± 1 | 16 ± 1
4 | [11CH3]Oc1ccc(Cl)c(C(=O)NCC23CC4CC(CC(F)(C4)C2)C3)c1 [[^11C]2] | – | – | – | – | – | – | – | 2.93 ± 0.02 | 67 ± 5 | 32 ± 4 | 37 ± 7 | 15 ± 2
5 | [11CH3]Oc1ccc(Cl)c(C(=O)NCC23CC4CC(CC(C4)C2)C3)c1 [[^11C]1] | – | – | – | – | – | – | – | 2.88 ± 0.14 | 82 ± 1 | 76 ± 2 | 37 ± 5 | 25 ± 1
